Patent publication EP0044212B1, “Herbicidal o-alkylsulfonyloxy- and o-alkylsulfonylamino-benzenesulfonamides” (E.I. DU PONT DE NEMOURS AND COMPANY, priority 1980, dated 1982)

Experiments:
[1] = test system: Wild Oats; experiment: Test F over-the-top soil/foliage treatment; assay type: in vivo, Avena fatua; design: scale not given here; details: soil/foliage spray, ~14 days
Method: (§1) The test chemicals, dissolved in a non-phytotoxic solvent, were applied in an overall spray to the foliage and surrounding […] of selected plant species. […] Approximately fourteen days after treatment, all species were visually compared to untreated controls and rated for response to treatment.
(§2) All plant species were seeded in Woodstown sandy loam soil and grown in a greenhouse. The following species were grown in soil contained in plastic pots (25 cm diameter by 13 cm deep): soybeans, cotton, alfalfa, corn, rice, wheet, sorghum, velvetleaf (Abutilon theophrasti), sesbania (Sesbania exaltata), Cassia (Cassia tora), morningglory (Ipomoea hederacea), jimsonweed (Datura stramonium), cocklebur (Xanthium pensylvanicum), crabgrass (Digitaria spp.), nutsedge (Cyperus rotundus), barnyardgrass (Echinochloa crusgalli), giant foxtail (Setaria faberii) and wild oats (Avena fatua). The following species were grown in soil in a paper cup (12 cm diameter by 13 cm deep): sunflower, sugarbeets, and mustard. All plants were sprayed approximately 14 days after planting.

[2] = test system: Morningglory; experiment: Test B pre-emergence on Fallsington silt loam; assay type: in vivo, Ipomoea hederacea; details: 0.03 kg/ha, 28 days
Excerpt: (§3) Two plastic bulb pans were filled with fertilized and limed Fallsington silt loam soil. One pan was planted with corn, sorghum, Kentucky bluegrass and several grassy weeds. The other pan was planted with cotton, soybeans, purple nutsedge (Cyperus rotundus), and several broadleaf weeds. The following grassy and broadleaf weeds were planted: crabgrass (Digitaria sanguinalis), barnyardgrass (Echinochloa crusgalli), wild oats (Avena fatua), johnsongrass (Sorghum halepense), dallisgrass (Paspalum dilatatum), giant foxtail (Setaria faberii), cheatgrass (Bromus secalinus), mustard (Brassica arvensis), cocklebur (Xanthium pensylvanicum), pigweed (Amaranthus retroflexus), morningglory (Ipomoea hederacea), cassia (Cassia tora), teaweed (Sida spinosa), velvetleaf (Abutilon theophrasti), and jimsonweed (Datura stramonium). A 12.5 cm diameter plastic pot was also filed with prepared soil and planted with rice and wheat. Another 12.5 cm pot was planted with sugarbeets. The above four containers were treated pre- emergence with several test compounds within the scope of the invention.
(§4) Twenty-eight days after treatment, the plants were evaluated and visually rated for response to the chemical treatments utilizing the rating system described previously for Test A. The data are summarized in Table B.

[3] = test system: Alfalfa; experiment: Test F over-the-top soil/foliage treatment; assay type: in vivo; design: scale not given here; details: soil/foliage spray, ~14 days
Method: as §1, §2

[4] = test system: Sorghum; experiment: Test F over-the-top soil/foliage treatment; assay type: in vivo; design: scale not given here; details: soil/foliage spray, ~14 days
Method: as §1, §2

[5] = test system: Barnyardgrass; experiment: Test F over-the-top soil/foliage treatment; assay type: in vivo, Echinochloa crusgalli; design: scale not given here; details: soil/foliage spray, ~14 days
Method: as §1, §2

[6] = test system: Johnsongrass; experiment: Test B pre-emergence on Fallsington silt loam; assay type: in vivo, Sorghum halepense; design: scale not given here; details: 0.12 kg/ha, 28 days
Excerpt: as §3, §4

[7] = test system: Cotton; experiment: Test B pre-emergence on Fallsington silt loam; assay type: in vivo; details: 0.03 kg/ha, 28 days
Excerpt: as §3, §4

[8] = test system: Sorghum; experiment: Test B pre-emergence on Fallsington silt loam; assay type: in vivo; details: 0.12 kg/ha, 28 days
Excerpt: as §3, §4

[9] = test system: Wheat; experiment: Test F over-the-top soil/foliage treatment; assay type: in vivo, wheet; design: scale not given here; details: soil/foliage spray, ~14 days
Method: as §1, §2

[10] = test system: Corn; experiment: Test F over-the-top soil/foliage treatment; assay type: in vivo; details: soil/foliage spray; 0.06 kg/ha; ~14 days
Method: as §1, §2

[11] = test system: Sunflower; experiment: Test F over-the-top soil/foliage treatment; assay type: in vivo; details: soil/foliage spray, ~14 days
Method: as §1, §2

[12] = test system: Sugarbeets; experiment: Test F over-the-top soil/foliage treatment; assay type: in vivo; details: soil/foliage spray; 0.007 kg/ha; ~14 days
Method: as §1, §2

[13] = test system: Mustard; experiment: Test F over-the-top soil/foliage treatment; assay type: in vivo; details: soil/foliage spray, ~14 days
Method: as §1, §2

[14] = test system: Giant Foxtail; experiment: Test F over-the-top soil/foliage treatment; assay type: in vivo, Setaria faberii; design: scale not given here; details: soil/foliage spray, ~14 days
Method: as §1, §2

[15] = test system: Dallisgrass; experiment: Test B pre-emergence on Fallsington silt loam; assay type: in vivo, Paspalum dilatatum; design: scale not given here; details: 0.03 kg/ha, 28 days
Excerpt: as §3, §4

[16] = test system: Nutsedge; experiment: Test F over-the-top soil/foliage treatment; assay type: in vivo, Cyperus rotundus; design: scale not given here; details: soil/foliage spray, ~14 days
Method: as §1, §2

[17] = test system: Sesbania; experiment: Test F over-the-top soil/foliage treatment; assay type: in vivo, Sesbania exaltata; design: scale not given here; details: soil/foliage spray, ~14 days
Method: as §1, §2

[18] = test system: Cocklebur; experiment: Test B pre-emergence on Fallsington silt loam; assay type: in vivo, Xanthium pensylvanicum; details: 0.03 kg/ha, 28 days
Excerpt: as §3, §4

[19] = test system: Cassia; experiment: Test B pre-emergence on Fallsington silt loam; assay type: in vivo, Cassia tora; details: 0.12 kg/ha, 28 days
Excerpt: as §3, §4

[20] = test system: Ky. bluegrass; experiment: Test B pre-emergence on Fallsington silt loam; assay type: in vivo, Kentucky bluegrass; design: scale not given here; details: 0.12 kg/ha, 28 days
Excerpt: as §3, §4

[21] = test system: Wild Oats; experiment: Test B pre-emergence on Fallsington silt loam; assay type: in vivo, Avena fatua; design: scale not given here; details: 28 days
Excerpt: as §3, §4

[22] = test system: Jimsonweed; experiment: Test F over-the-top soil/foliage treatment; assay type: in vivo, Datura stramonium; details: soil/foliage spray, ~14 days
Method: as §1, §2

[23] = test system: Pigweed; experiment: Test B pre-emergence on Fallsington silt loam; assay type: in vivo, Amaranthus retroflexus; details: 0.03 kg/ha, 28 days
Excerpt: as §3, §4

COc1cc(OC)nc(NC(=O)NS(=O)(=O)c2ccccc2OS(C)(=O)=O)n1 [Compound 1, N-[(4,6-Dimethoxypyrimidin-2-yl)aminocarbonyl]-2-hydroxybenzenesulfonamide, methanesulfonate]
5C: Alfalfa response rating ([3]; 0.015 kg/ha)
5G: Morningglory response rating [2] | Giant Foxtail response rating ([14]; 0.003 kg/ha) | Giant Foxtail response rating ([14]; 0.007 kg/ha) | Nutsedge response rating ([16]; 0.007 kg/ha)
9C: Alfalfa response rating ([3]; 0.06 kg/ha) | Sorghum response rating ([4]; 0.015 kg/ha) | Sesbania response rating ([17]; 0.015 kg/ha) | Sesbania response rating ([17]; 0.06 kg/ha) | Jimsonweed response rating ([22]; 0.06 kg/ha)
1G: Wheat response rating ([9]; 0.003 kg/ha)
8G: Cotton response rating [7]
0: Wheat response rating ([9]; 0.007 kg/ha) | Wheat response rating ([9]; 0.015 kg/ha) | Wheat response rating ([9]; 0.06 kg/ha) | Jimsonweed response rating ([22]; 0.003 kg/ha) | Jimsonweed response rating ([22]; 0.007 kg/ha)
6G: Wild Oats response rating ([1]; 0.06 kg/ha) | Cocklebur response rating [18] | Wild Oats response rating ([21]; 0.03 kg/ha)
10C: Sorghum response rating ([4]; 0.06 kg/ha) | Barnyardgrass response rating ([5]; 0.015 kg/ha) | Barnyardgrass response rating ([5]; 0.06 kg/ha) | Johnsongrass response rating [6] | Sorghum response rating [8] | Corn response rating [10] | Sunflower response rating ([11]; 0.003 kg/ha) | Sunflower response rating ([11]; 0.007 kg/ha) | Sugarbeets response rating [12] | Mustard response rating ([13]; 0.003 kg/ha) | Mustard response rating ([13]; 0.007 kg/ha) | Nutsedge response rating ([16]; 0.015 kg/ha) | Nutsedge response rating ([16]; 0.06 kg/ha) | Sesbania response rating ([17]; 0.003 kg/ha) | Sesbania response rating ([17]; 0.007 kg/ha) | Cassia response rating [19] | Ky. bluegrass response rating [20] | Wild Oats response rating ([21]; 0.12 kg/ha) | Pigweed response rating [23]
7G: Dallisgrass response rating [15]
3G: Wild Oats response rating ([1]; 0.003 kg/ha) | Wild Oats response rating ([1]; 0.007 kg/ha) | Wild Oats response rating ([1]; 0.015 kg/ha) | Nutsedge response rating ([16]; 0.003 kg/ha)
